Assay results reported in patent publication US20090197955A1, “METHODS OF IMPROVING DHA DEPOSITION AND RELATED FUNCTION AND/OR DEVELOPMENT” (Monsanto Company, priority 2008, published 2009).

Assay: Fatty acid composition of pig tissues (ham, loin, belly, skin) after feeding SDA ethyl ester diets, 35 day study
Format: in vivo, pigs
Method: A 35 day study was conducted to determine whether pigs fed a diet containing SDA could enhance tissues with improved fatty acid profiles including increased levels of SDA, EPA, and DHA.
Four test diets (Treatment 2, 3, 4, and 5) with SDA ethyl ester substituted for corn oil to provide 0.2, 0.4, 0.6 and 0.8% (w/w SDA active ingredient, as-is basis) were fed ad libitum to one pen of four pigs throughout the 35-day test period Table 4). All diets were fed in meal form. Treatment 6 was fed the same diet as Treatment 5, but for a duration of only 21 days.
All pigs were individually weighed at initiation of the acclimation and test period, and immediately prior to slaughter. Feed consumption per pen was recorded. Upon completion of the feeding period, pigs were slaughtered for tissue collection and carcass evaluation. Pigs were slaughtered using standard industry practices (electrical stunning, exsanguinations, scalding, dehairing and evisceration). Live weights prior to slaughter and hot carcass weights were recorded. The left side of each carcass was fabricated and samples were obtained from the loin (longissimus muscle), ham (semimembranosus muscle) and belly (a section from the center of the belly) for sensory evaluation, fatty acid, and proximate analysis. Prior to removing the sample for sensory and fatty and proximate analysis from the belly the firmness of the belly was evaluated using a flop test. At 24 hr postmortem fat thickness (10th rib), loin eye area (10th rib), visual color, firmness and marbling, Minolta color (L*a*b*), pH, and drip loss were measured.
In order to evaluate the fatty acid composition of pig tissues (loin, ham, skin, and belly), samples were stored at −80° C. until evaluation. After thawing, ˜22 g of fresh pig tissue was chopped into small pieces and thoroughly mixed before 10 g was sub sampled and lyophilized. Lyophilized samples were ground in 30 ml Sarstedt tubes with two ball bearings using a Mega Grinder. Ground samples (loin and ham: 50 mg; skin: 100 mg; belly: 150 mg; diet: 500 mg) were directly methylated with sulfuric acid in methanol (loin and ham: 1 mL; skin: 3 mL; belly: 10 mL; diet: 1.5 mL) sealed in the presence of butylated hydroxytoluene (50 mg BHT in 100 ml reagent) in reflux conditions of 90° C. Resultant fatty acid methyl esters (FAME's) were separated by capillary gas chromatography (GC) and detected by flame ionization detector (FID). The column used was a Supelco Omegawax 250 capillary column with dimensions of 30 m×0.25 mm×0.25 μm film thickness. The run time was 32 minutes. Peaks were identified based on their relative retention time compared to a FAME reference mixture. Quantification was achieved by using an internal standard (c15:0 triacylglyceride (TAG) for pig tissue samples and c17:0 TAG for diet samples). Results are reported as FA g/100 g fat with theoretical response correction.
For Table 6 below, each value represents g/100 g total fatty acids a mean of 4 samples (1 sample from each of 4 pigs) per treatment.

For CC/C=C\C/C=C\C/C=C\C/C=C\CCCCC(=O)O [SDA, stearidonic acid], the “22:3 n-6, ham” value (0.8% SDA feed, 35 days) was 0.24 g FA per 100 g fat, the “22:5 n-3 (DPA), ham” value (0.8% SDA feed, 35 days) was 0.83 g FA per 100 g fat and the “22:6 n-3 (DHA), ham” value (0.8% SDA feed, 35 days) was 0.13 g FA per 100 g fat. For the same molecule, the “24:1 n-9, ham” value (0.8% SDA feed, 35 days) was 0.07 g FA per 100 g fat, the “Total PUFA, ham” value (0.8% SDA feed, 35 days) was 18.89 g FA per 100 g fat and the “Total monoenes, ham” value (0.8% SDA feed, 35 days) was 43.54 g FA per 100 g fat. The “Total n-3, ham” value (0.8% SDA feed, 35 days) was 2.64 g FA per 100 g fat, the “Total n-6, ham” value (0.8% SDA feed, 35 days) was 16.25 g FA per 100 g fat and the “Total saturates, ham” value (0.8% SDA feed, 35 days) was 33.18 g FA per 100 g fat. The “n-6/n-3, ham” value (0.8% SDA feed, 35 days) was 6.16, the “12:0, ham” value (SDA 0.2%, 35 Day) was 2.04 mg FA/100 g of fresh tissue and the “14:0, ham” value (SDA 0.2%, 35 Day) was 34.0 mg FA/100 g of fresh tissue. For the same molecule, the “16:0, ham” value (SDA 0.2%, 35 Day) was 673.5 mg FA/100 g of fresh tissue, the “16:1 n-7, ham” value (SDA 0.2%, 35 Day) was 116.6 mg FA/100 g of fresh tissue and the “18:0, ham” value (SDA 0.2%, 35 Day) was 313.7 mg FA/100 g of fresh tissue. For the same molecule, the “18:1 n-7, ham” value (SDA 0.2%, 35 Day) was 146.2 mg FA/100 g of fresh tissue, the “18:1 n-9, ham” value (SDA 0.2%, 35 Day) was 1303.4 mg FA/100 g of fresh tissue and the “18:2 n-6, ham” value (SDA 0.2%, 35 Day) was 264.7 mg FA/100 g of fresh tissue. For the same molecule, the “18:3 n-3, ham” value (SDA 0.2%, 35 Day) was 5.60 mg FA/100 g of fresh tissue, the “18:4 n-3, ham” value (SDA 0.2%, 35 Day) was 0.76ab mg FA/100 g of fresh tissue and the “20:1 n-9, ham” value (SDA 0.2%, 35 Day) was 22.0 mg FA/100 g of fresh tissue. The “20:2 n-6, ham” value (SDA 0.2%, 35 Day) was 11.4a mg FA/100 g of fresh tissue, the “20:3 n-3, ham” value (SDA 0.2%, 35 Day) was 0.91 mg FA/100 g of fresh tissue and the “20:4 n-3, ham” value (SDA 0.2%, 35 Day) was 2.23ab mg FA/100 g of fresh tissue. For the same molecule, the “20:4 n-6, ham” value (SDA 0.2%, 35 Day) was 57.4 mg FA/100 g of fresh tissue, the “20:5 n-3, ham” value (SDA 0.2%, 35 Day) was 3.98a mg FA/100 g of fresh tissue and the “22:1 n-11, ham” value (SDA 0.2%, 35 Day) was 1.06ab mg FA/100 g of fresh tissue. For the same molecule, the “22:5 n-3, ham” value (SDA 0.2%, 35 Day) was 11.1b mg FA/100 g of fresh tissue, the “22:6 n-3, ham” value (SDA 0.2%, 35 Day) was 2.21 mg FA/100 g of fresh tissue and the “Lipid content, ham” value (SDA 0.2%, 35 Day) was 3.15%. For the same molecule, the “Total PUFA, ham” value (SDA 0.2%, 35 Day) was 377.9 mg FA/100 g of fresh tissue, the “Total monoenes, ham” value (SDA 0.2%, 35 Day) was 1600 mg FA/100 g of fresh tissue and the “Total n-3, ham” value (SDA 0.2%, 35 Day) was 26.8a mg FA/100 g of fresh tissue. The “Total n-6, ham” value (SDA 0.2%, 35 Day) was 351.2 mg FA/100 g of fresh tissue, the “Total saturates, ham” value (SDA 0.2%, 35 Day) was 1029.0 mg FA/100 g of fresh tissue and the “n-3/n-6, ham” value (SDA 0.2%, 35 Day) was 0.080b. For the same molecule, the “12:0, ham” value (SDA 0.4%, 35 Day) was 2.22 mg FA/100 g of fresh tissue, the “14:0, ham” value (SDA 0.4%, 35 Day) was 38.2 mg FA/100 g of fresh tissue and the “16:0, ham” value (SDA 0.4%, 35 Day) was 748.4 mg FA/100 g of fresh tissue. The “16:1 n-7, ham” value (SDA 0.4%, 35 Day) was 121.6 mg FA/100 g of fresh tissue, the “18:0, ham” value (SDA 0.4%, 35 Day) was 370.6 mg FA/100 g of fresh tissue and the “18:1 n-7, ham” value (SDA 0.4%, 35 Day) was 151.0 mg FA/100 g of fresh tissue. The “18:1 n-9, ham” value (SDA 0.4%, 35 Day) was 1404.9 mg FA/100 g of fresh tissue, the “18:2 n-6, ham” value (SDA 0.4%, 35 Day) was 316.6 mg FA/100 g of fresh tissue and the “18:3 n-3, ham” value (SDA 0.4%, 35 Day) was 9.17 mg FA/100 g of fresh tissue. The “18:4 n-3, ham” value (SDA 0.4%, 35 Day) was 1.45b mg FA/100 g of fresh tissue, the “20:1 n-9, ham” value (SDA 0.4%, 35 Day) was 23.6 mg FA/100 g of fresh tissue and the “20:2 n-6, ham” value (SDA 0.4%, 35 Day) was 12.7a mg FA/100 g of fresh tissue. For the same molecule, the “20:3 n-3, ham” value (SDA 0.4%, 35 Day) was 1.49 mg FA/100 g of fresh tissue, the “20:4 n-3, ham” value (SDA 0.4%, 35 Day) was 5.04bc mg FA/100 g of fresh tissue and the “20:4 n-6, ham” value (SDA 0.4%, 35 Day) was 64.3 mg FA/100 g of fresh tissue. For the same molecule, the “20:5 n-3, ham” value (SDA 0.4%, 35 Day) was 7.91b mg FA/100 g of fresh tissue, the “22:1 n-11, ham” value (SDA 0.4%, 35 Day) was 1.25b mg FA/100 g of fresh tissue and the “22:5 n-3, ham” value (SDA 0.4%, 35 Day) was 15.2c mg FA/100 g of fresh tissue. The “22:6 n-3, ham” value (SDA 0.4%, 35 Day) was 2.59 mg FA/100 g of fresh tissue, the “Lipid content, ham” value (SDA 0.4%, 35 Day) was 3.5% and the “Total PUFA, ham” value (SDA 0.4%, 35 Day) was 459.2 mg FA/100 g of fresh tissue. For the same molecule, the “Total monoenes, ham” value (SDA 0.4%, 35 Day) was 1715 mg FA/100 g of fresh tissue, the “Total n-3, ham” value (SDA 0.4%, 35 Day) was 42.9b mg FA/100 g of fresh tissue and the “Total n-6, ham” value (SDA 0.4%, 35 Day) was 416.4 mg FA/100 g of fresh tissue. The “Total saturates, ham” value (SDA 0.4%, 35 Day) was 1166.5 mg FA/100 g of fresh tissue, the “n-3/n-6, ham” value (SDA 0.4%, 35 Day) was 0.101bc and the “12:0, ham” value (SDA 0.6%, 35 Day) was 1.37 mg FA/100 g of fresh tissue. For the same molecule, the “14:0, ham” value (SDA 0.6%, 35 Day) was 23.9 mg FA/100 g of fresh tissue, the “16:0, ham” value (SDA 0.6%, 35 Day) was 482.6 mg FA/100 g of fresh tissue and the “16:1 n-7, ham” value (SDA 0.6%, 35 Day) was 69.5 mg FA/100 g of fresh tissue. For the same molecule, the “18:0, ham” value (SDA 0.6%, 35 Day) was 252.5 mg FA/100 g of fresh tissue, the “18:1 n-7, ham” value (SDA 0.6%, 35 Day) was 92.6 mg FA/100 g of fresh tissue and the “18:1 n-9, ham” value (SDA 0.6%, 35 Day) was 854.9 mg FA/100 g of fresh tissue. For the same molecule, the “18:2 n-6, ham” value (SDA 0.6%, 35 Day) was 215.7 mg FA/100 g of fresh tissue and the “18:3 n-3, ham” value (SDA 0.6%, 35 Day) was 5.03 mg FA/100 g of fresh tissue.
